Results as given in patent publication US12398110B2, “Second generation inhibitors of mitochondrial permeability transition pore with improved plasma stability” (Oregon Health & Science University, priority 2019, dated 2025).
Where two headings read alike, the source gives them in different places.

What was measured:
Assay type in all cases: biochemical
mtPTP [1] = assay: Ca2+ overload induced mitochondrial swelling in isolated mouse liver mitochondria; details: for mtPTP inhibitory activity (in words): SAR discussion of Table 2
Experimental: We next sought to evaluate the effects of TR001-13 on mtPTP activity in vitro. This was performed on isolated mitochondria. In isolated mitochondria induction of mtPTP opening leads to mitochondrial swelling due to the oncotic pressure gradient created by matrix proteins >1.5 kDa that cannot diffuse through the open pore. In in vitro experiments, where isolated mitochondria are routinely suspended in sucrose-based isosmotic solutions, the change in mitochondrial size can be measured spectrometrically by detecting the decrease in light scattering at 540 nm.
(§1) Isolation of mitochondria. C57BL6/N mouse liver mitochondria were prepared from 2 to 6 month old male mice by standard differential centrifugation. Mice fed ad libitum were euthanized with CO2 followed cervical dislocation, their livers were existed and placed in a glass beaker containing ice-cold isolation buffer (IB: 0.25 m sucrose, 10 mm Tris-HCl, 0.1 mm EGTA-Tris, pH 7.4) supplemented with fatty acid free bovine serum albumin. Livers were then cut into small pieces with scissors, rinsed with ice-cold IB, and passed through a pre-chilled Potter homogenizer with Teflon pestle. The homogenate (˜30 mL per liver) was transferred to centrifuge tubes, and unbroken cells and nuclei were removed by centrifugation at 700 g for 10 min at 4° C. The supernatant containing mitochondria and other organelles was transferred to new tubes and centrifuged at 6000 g for 10 min at 4° C. The resulting supernatant was discarded and mitochondrial pellet was carefully suspended in ice-cold IB and spun at 9500 g for 5 min at 4° C. The pellet was suspended in IB to give a protein concentration of ˜60-80 mg/mL and stored on ice. Experiments were started immediately and completed within 5 h. Protein concentration was determined by the Biuret method.
Assessment of mitochondrial swelling. Changes in mitochondrial volume of isolated mouse liver mitochondria were followed in a 96-well clear assay plate at a final volume of 0.2 mL and 0.25 mg/mL mitochondrial protein. Absorbance was read for 30 min at 540 nm on a Tecan Infinite F200 plate reader. Activity of test compounds was addressed as follows: First, 0.1 mL of sucrose assay buffer (SAB: 0.250 m sucrose, 10 mm MOPS-Tris, 0.01 mm EGTA-Tris, 1.0 mm phosphoric acid-Tris, 10 mm glutamate and 5 mm malate, pH 7.4) supplemented with twice the CaCl2 concentration required to induce mitochondrial swelling (which was determined for each preparation of mitochondria, typically 50 μm) was dispensed to the assay plate. A set of wells also contained 2.0 mm EGTA (to prevent mitochondrial swelling). The test wells contained a range of concentrations (in 1:2 serial dilutions) of the compounds of interest or 2% DMSO. Experiments were started by the addition of 0.1 mL of mitochondrial suspension (0.5 mg/mL mitochondria in SAB without respiratory substrates) to the assay plates. EC50s±SE were determined with OriginPro software by applying Hill1 function fitting algorithm on average concentration response data of n=3-41 independent preparations.

[2] = test system: inner mitochondrial membrane potential; assay: Rhodamine 123 (Rh123) uptake, mitochondrial membrane potential of isolated mouse liver mitochondria
Source text: We next evaluated the mitochondrial toxicity of the new triazole analogs by testing their ability to interfere with accumulation of the membrane-permeant cationic fluorescent dye rhodamine 123 (Rh123). The mitochondrial uptake of positively charged Rh123 is driven by the inside negative IMM potential, which is built by the respiratory chain or maintained by ATP hydrolysis if certain conditions are met. […] It should be noted, however, that toxicity for these compounds only occurs at ˜10-1000-fold higher concentrations compared to mtPTP inhibition, providing a good therapeutic window.
Assessment of mitochondrial membrane potential. Mitochondrial membrane potential—to evaluate toxicity—of isolated mouse liver mitochondria was assessed based on fluorescence quenching of the cationic fluorescent dye Rh123 upon its accumulation into mitochondrial matrix due to inside negative membrane potential. Compounds that interfere with the build-up or maintenance of IMM potential would shift Rh123 fluorescence to higher values compared to DMSO treated samples. Uncoupler FCCP was used to account for nonspecific fluorescence. First, 0.1 mL of SAB was dispensed to a 96-well black assay plate. A set of wells also contained 0.8 μm FCCP (to prevent Rh123 uptake). The test wells contained a range of concentrations (in 1:2 serial dilutions) of the compounds of interest or 2% DMSO. Then, 0.1 mL of 0.5 mg/mL mitochondria in SAB devoid of respiratory substrates but supplemented with 0.8 μm Rh123 were added to all wells of the assay plate. Fluorescence intensity (ex/em 485/535 nm) was read on a Tecan Infinite F200 plate reader for 7 min and value at 5 min was considered for analysis. EC50s±SE were determined with OriginPro software by applying Hill1 function fitting algorithm on average concentration response data of n=3 independent preparations.

mtPTP [3] = assay: Ca2+ retention capacity (CRC) of isolated mouse liver mitochondria
Experimental: CRC determines the Ca^2+ threshold required for mtPTP activation; inhibitors of mtPTP are expected to increase the Ca^2+ threshold required for mtPTP induction. Extramitochondrial Ca^2+ changes are detected using the membrane-impermeant Ca^2+ indicator, Calcium Green-5N.
as §1
Assessment of Ca^2+ retention capacity (CRC). CRC of isolated mouse liver mitochondria was assessed as follows: First, 0.1 mL of SAB were dispensed to a 96-well black assay plate in the presence of 2% DMSO (control wells) or varying concentrations of test compounds, in 1:2 serial dilutions. Then, 0.1 mL of 0.5 mg/mL mitochondria in SAB devoid of respiratory substrates, but supplemented with 1 μm Calcium Green-5N were added to all wells of the assay plate. A train of 10 μm CaCl2 pulses was added at 2 min intervals, and fluorescence intensity (ex/em 485/535 nm) was read on Tecan Infinite F200 plate reader.

[4] = Mouse Liver Mitochondria (MLM), comparative examples, read-out: Swelling EC50
[5] = Mouse Liver Mitochondria (MLM), comparative examples, read-out: Rh123 EC50
[6] = Mouse Liver Mitochondria (MLM), comparative examples
[7] = isolated mouse liver mitochondria, average ± SEM, n = 3-41, read-out: Mitochondrial Swelling EC50
[8] = interference with Rh123 uptake to mitochondria, average ± SEM, n = 3, read-out: Rh123 uptake EC50
[9] = compound treated CRC to DMSO treated CRC0 ratio, 1.25 μM, average ± SEM, n = 3-25

Compound	EC50 (mtPTP [1]; [4]) [µM]	EC50 [2, 5] [µM]	CRC/CRC0 at 1.25 μM (mtPTP [3]; [6])	further results
Cc1ccc(Cl)cc1NC(=O)c1cn(-c2cccc(O)c2C)nn1 [drawing 68]	10.6	> 40	1.4	–
Cc1ccc(Cl)cc1NC(=O)c1cn(-c2ccc(Br)c(O)c2)nn1 [drawing 60]	0.475	> 40	2.4	–
Cc1ccc(-n2cc(C(=O)Nc3cc(Cl)ccc3C)nn2)cc1O [TR011, N-(5-chloro-2-methylphenyl)-1-(3-hydroxy-4-methylphenyl)-1H-1,2,3-triazole-4-carboxamide]	–	–	–	mtPTP inhibitory activity (in words) (mtPTP [1]): inactive; EC50 (mtPTP [1]; [7]): > 20 µM; EC50 [2, 8]: > 40 µM; CRC/CRC0 at 1.25 μM (mtPTP [3]; [9]): 1.4 ± 0.1
CCCOc1ccc(Cl)cc1NC(=O)c1cn(-c2ccc(F)c(O)c2)nn1	8.7	> 40	1.8	–
C#Cc1ccc(C(C)=O)cc1NC(=O)c1cn(-c2ccc(F)c(O)c2)nn1	> 20	–	–	–
Cc1ccc(N=[N+]=[N-])cc1NC(=O)c1cn(-c2ccc(F)c(O)c2)nn1	0.578	> 40	2.4	–
Cc1ccc(Cl)cc1NC(=O)c1cn(-c2ccc(F)c(N)c2)nn1	> 20	–	1	–
Cc1ccc(Cl)cc1NC(=O)c1cn(-c2ccc3[nH]c(=O)[nH]c3c2)nn1	> 20	–	1	–
CC(=O)Oc1cc(-n2cc(C(=O)Nc3cc(Cl)ccc3C)nn2)ccc1F	0.083	> 40	4.5	–
Cc1ccc(Cl)cc1NC(=O)c1cn(-c2cc(O)cc(C(F)(F)F)c2)nn1 [TR013, N-(5-chloro-2-methylphenyl)-1-(3-(trifluoromethyl)-5-hydroxyphenyl)-1H-1,2,3-triazole-4-carboxamide]	–	–	–	mtPTP inhibitory activity (in words) (mtPTP [1]): significantly reduced activity; EC50 (mtPTP [1]; [7]): 0.534 ± 0.047 µM; EC50 [2, 8]: 6.2 ± 1.2 µM; CRC/CRC0 at 1.25 μM (mtPTP [3]; [9]): 2.9 ± 0.1
Cc1ccc(Cl)cc1NC(=O)c1cn(-c2cc(O)cc(Cl)c2)nn1 [TR008, N-(5-chloro-2-methylphenyl)-1-(3-chloro-5-hydroxyphenyl)-1H-1,2,3-triazole-4-carboxamide]	–	–	–	EC50 (mtPTP [1]; [7]): 0.028 ± 0.005 µM; fold decrease in activity compared to TR002 (mtPTP [1]; mitochondrial swelling, vs TR002): 2 fold; EC50 [2, 8]: > 40 µM; CRC/CRC0 at 1.25 μM (mtPTP [3]; [9]): 7.3 ± 1.1
C#Cc1ccc(C)c(NC(=O)c2cn(-c3ccc(F)c(O)c3)nn2)c1	7	> 40	1.3	–
Cc1c(Cl)cccc1NC(=O)c1cn(-c2ccc(F)c(O)c2)nn1	0.0051	> 40	5.4	–
Cc1ccc(Cl)cc1NC(=O)c1cn(-c2cccc(O)c2Cl)nn1 [drawing 70]	> 20	> 40	1.2	–
Cc1ccc(Cl)cc1NC(=O)c1cn(-c2ccc(F)c(NC(=O)C(F)(F)F)c2)nn1	> 20	–	1	–
Cc1ccc(Cl)cc1NC(=O)c1cn(-c2cc(O)ccc2F)nn1 [drawing 53]	> 20	> 40	1.4	–
Cc1ccc(Cl)cc1NC(=O)c1cn(-c2ccc(Br)c(NS(C)(=O)=O)c2)nn1	> 20	–	1	–
Cc1ccc(Cl)cc1NC(=O)c1cn(-c2ccc(Br)c(O)c2)nn1 [TR009, 1-(4-bromo-3-hydroxyphenyl)-N-(5-chloro-2-methylphenyl)-1H-1,2,3-triazole-4-carboxamide]	–	–	–	mtPTP inhibitory activity (in words) (mtPTP [1]): decreased activity; EC50 (mtPTP [1]; [7]): 0.475 ± 0.057 µM; EC50 [2, 8]: > 40 µM; CRC/CRC0 at 1.25 μM (mtPTP [3]; [9]): 2.4 ± 0.2
C#Cc1ccc(Cl)cc1NC(=O)c1cn(-c2ccc(F)c(O)c2)nn1	0.513	> 40	3.7	–
Cc1ccc(Cl)cc1NC(=O)c1cn(-c2ccc(C)c(O)c2Cl)nn1 [TR010, N-(5-chloro-2-methylphenyl)-1-(2-chloro-3-hydroxy-4-methylphenyl)-1H-1,2,3-triazole-4-carboxamide]	–	–	–	EC50 (mtPTP [1]; [7]): > 20 µM; EC50 [2, 8]: > 40 µM; CRC/CRC0 at 1.25 μM (mtPTP [3]; [9]): 1.1 ± 0.1
Cc1ccc(Cl)cc1NC(=O)c1cn(-c2ccc(Cl)c(O)c2)nn1 [drawing 59]	0.135	> 40	3.9	–
Cc1ccc(Cl)cc1NC(=O)c1cn(-c2cc(O)cc(Cl)c2)nn1 [drawing 69]	0.028	> 40	7.3	–
CC(=O)Nc1cc(-n2cc(C(=O)Nc3cc(Cl)ccc3C)nn2)ccc1F	> 20	–	1	–
Cc1ccc(Cl)cc1NC(=O)c1cn(-c2ccc(F)c(O)c2)nn1 [drawing 47]	4	10	1	–
Cc1ccc(Cl)cc1NC(=O)c1cn(-c2cccc(C(=O)O)c2)nn1	> 20	–	1	–
Cc1ccc(Cl)cc1NC(=O)c1cn(-c2ccc(F)c(NS(=O)(=O)C(F)(F)F)c2)nn1	> 20	–	1	–
Cc1ccc(Cl)cc1NC(=O)c1cn(-c2cc(F)cc(OC(=O)N(C)C)c2)nn1	> 20	–	1.5	–
Cc1ccc(Cl)cc1NC(=O)c1cn(-c2ccc(F)c(OC(=O)N(C)C)c2)nn1	0.153	–	3.9	–
